In patent publication US5922775A, “Method of treating malignant tumors with ketone thyroxine analogues having no significant hormonal activity” (priority 1997, dated 1999):
“Also recorded” adds a separate entry of the source.

Experiments:
protein phosphatase 2A = conditions: cited from earlier work
cancer cells = experiment: Blocking of mitosis in cancer cells; assay type: cell-based
mammary cancer cells = experiment: Colony formation by mammary cancer cells (FIG. 1); assay type: cell-based, human; conditions: DIME vs DIPE
Description: FIG. 1 is a graph illustrating the cell killing effects of DIME and DIPE on mammary cancer colonies;
The effect of DIME and DIPE on colony formation by mammary cancer cells is illustrated in FIG. 1, where the results are superimposable, confirming that cytocidal action of DIME and DIPE are indistinguishable.

[1] = tested on: non-malignant mouse pituitary adenoma; conditions: cited from earlier work
Rana pipiens tadpoles = conditions: tadpole metamorphosis; cited from earlier work
thyroid iodine uptake = conditions: rats; as compared to thyroxine; cited from earlier work
[2] = tested on: human mammary cancer cells (MDA-MB-231); experiment: Growth of human mammary cancer cells (Table 2 A); assay type: cell-based; conditions: 2 μM
Description: The effects of these three substances on the growth of human mammary cancer cells (MDA-MB-231) and human lung cancer cells (A 549) are summarized in Table 2.
In section (a) of Table 2 the effects of DIME, DIPE and DIPP on the growth of mammary cancer cells, assayed at 48 and 72 hrs, is shown. […] The slightly lesser efficacy of DIPP could be predicted from earlier results obtained with DIME analogs (International Journal of Oncology, 1997, 10, 689-695, FIG. 1) where we have shown that extending the methyl to ethyl substitution (on the carboxyl ester) diminishes cytotoxicity against tumor cells. A similar phenomenon occurs when DIPE is extended to DIPP (i.e. from the ethanone to the propanone).
(×10^3) Cell number per 2 cm^2

[3] = oral, 1 g/Kg/day for two to three months; cited from earlier work
[4] = tested on: biosynthetic pathways of DNA, RNA or proteins; conditions: cited from earlier work
[5] = tested on: human mammary cancer cells (MDA-MB-231); conditions: 1 mM DIME [sic]; within 18 hours; cited from earlier work
human cancer cells = conditions: cited from earlier work
cellular esterases = experiment: Stability against cellular esterases
Description: Moreover, amide analogs of DIME, having an NH2 or a substituted amino group, may be subject to hydrolysis catalyzed by cellular amidases. Since the hydrolysis product of such a hydrolysis is a carboxylic acid, the same decrease in efficacy can result. In order to decrease the chemical lability in the DIME pharmacophore structure, ketone analogues of DIME may be used.
A more detailed kinetic comparison of DIME, DIPE and DIPP on the kinetics of MTP assembly, in a concentration range of zero to 10 μM drug and a louvered GTP concentration (10 μM), is shown in FIG. 3.

COC(=O)c1cc(I)c(Oc2ccc(OC)cc2)c(I)c1 [DIME, methyl 3,5-diiodo-4-(4'-methoxyphenoxy)benzoate]
activation of protein phosphatase 2A (protein phosphatase 2A): directly activates protein phosphatase 2A | blocking of mitosis in cancer cells (cancer cells): capable of blocking mitosis in cancer cells | effect on colony formation (FIG. 1) (mammary cancer cells): superimposable | inhibition of growth of non-malignant pituitary tumor [1]: no inhibitory activity | cell differentiating / metamorphogenic activity (Rana pipiens tadpoles): no significant metabolic or metamorphogenic action; also recorded: no significant metabolic or cell differentiating activity | inhibition of uptake of iodine into the thyroid (thyroid iodine uptake): 15% | Cell number ([2]; 48 hours, control 150): 60 ×10^3 cell number per 2 cm^2 w | Cell number ([2]; 72 hours, control 300): 65 ×10^3 cell number per 2 cm^2 w | toxicity [3]: not toxic | inhibition of biosynthetic pathways of DNA, RNA or proteins [4]: nor does it inhibit the biosynthetic pathways of DNA, RNA or proteins | abnormal spindle structures [5]: induced abnormal spindle structures | cytostatic / cytocidal activity (human cancer cells; cellular assays and in vivo): highly active both in cellular assays and in vivo | growth inhibition of malignant cell types (human cancer cells): inhibit the growth of a variety of malignant cell types | tumor cell apoptosis (human cancer cells): induce tumor cell apoptosis preceded by micronucleation | tumoricidal activity in cell cultures (human cancer cells): potential tumoricidal agent both in cell cultures and in vivo | stability against esterases (cellular esterases): labile with respect to hydrolysis catalyzed by cellular esterases
